Counter-ions that a name gives are not always drawn.
system: HBV rcDNA in HepDE19 cells; test: HepDE19 assay with bDNA quantitation of HBV rcDNA; format: cell-based, hepatitis B virus (HBV); conditions: HepDE19 cells, inhibition of rcDNA formation, 7 day incubation, top concentration 25 μM; read-out: DE-19 bDNA EC50
Description: HepDE19 Assay with bDNA Quantitation of HBV rcDNA:
HepDE19 cell culture system is a HepG2 (human hepatocarcinoma) derived cell line that supports HBV DNA replication and cccDNA formation in a tetracycline (Tet)-regulated manner and produces HBV rcDNA and a detectable reporter molecule dependent on the production and maintenance of cccDNA (Guo, et al., 2007, J. Virol. 81:12472-12484).
HepDE19 (50,000 cells/well) were plated in 96-well collagen-coated tissue-culture treated microtiter plates in DMEM/F12 medium supplemented with 10% fetal bovine serum, 1% penicillin-streptomycin and 1 μg/mL tetracycline and incubated in a humidified incubator at 37° C. and 5% CO2 overnight. Next day, the cells were switched to fresh medium without tetracycline and incubated for 4 hours at 37° C. and 5% CO2. The cells were treated with fresh Tet-free medium with compounds at concentrations starting at 25 μM and a serial, ½ log, 8-point, titration series in duplicate. The final DMSO concentration in the assay was 0.5%. The plates were incubated for 7 days in a humidified incubator at 37° C. and 5% CO2. Following a 7 day-incubation, the level of rcDNA present in the inhibitor-treated wells was measured using a Quantigene 2.0 bDNA assay kit (Affymetrix, Santa Clara, Calif.) with HBV specific custom probe set and manufacturers instructions. Concurrently, the effect of compounds on cell viability was assessed using replicate plates, plated at a density of 5,000 cells/well and incubated for 4 days, to determine the ATP content as a measure of cell viability using the cell-titer glo reagent (CTG; Promega Corporation, Madison, Wis.) as per manufacturer's instructions. The plates were read using a Victor luminescence plate reader (PerkinElmer Model 1420 Multilabel counter) and the relative luminescence units (RLU) data generated from each well was calculated as % inhibition of the untreated control wells and analyzed using XL-Fit module in Microsoft Excel to determine EC50 and EC90 (bDNA) and CC50 (CTG) values using a 4-parameter curve fitting algorithm.
Representative compounds of the invention were tested for their abilities to inhibit formation of relaxed circular DNA (rcDNA) in a HepDE19 assay, as described elsewhere herein.

SMILES | EC50
O=C(Nc1ccc(F)c(Cl)c1)c1ccc(F)c2c1OCC2NS(=O)(=O)C1CC1 (single isomer, unassigned) [Compound 207, N-(3-chloro-4-fluorophenyl)-3-(cyclopropanesulfonamido)-4-fluoro-2,3-dihydrobenzofuran-7-carboxamide] | 14 µM
O=C(Nc1ccc(F)c(Cl)c1)c1ccc(F)c2c1OCC2NS(=O)(=O)C1CC1 (single isomer, unassigned) [Compound 208, N-(3-chloro-4-fluorophenyl)-3-(cyclopropanesulfonamido)-4-fluoro-2,3-dihydrobenzofuran-7-carboxamide] | 0.11 µM
CNC(=O)NC1(C)CCc2c(C(=O)Nc3ccc(F)c(Cl)c3)ccc(F)c21 (single isomer, unassigned) [Compound 223, N-(3-chloro-4-fluorophenyl)-7-fluoro-1-methyl-1-(3-methylureido)-2,3-dihydro-1H-indene-4-carboxamide] | 4.52 µM
O=C1NC(=O)C2(CCc3c(C(=O)Nc4ccc(F)c(Cl)c4)ccc(F)c32)N1 (single isomer, unassigned) [Compound 257, N-(3-chloro-4-fluoro-phenyl)-7′-fluoro-2,5-dioxo-spiro[imidazolidine-4,1′-indane]-4′-carboxamide] | > 25 µM
O=C1NC(=O)C2(CCc3c(C(=O)Nc4ccc(F)c(Cl)c4)ccc(F)c32)N1 (single isomer, unassigned) [Compound 258, N-(3-chloro-4-fluoro-phenyl)-7′-fluoro-2,5-dioxo-spiro [imidazolidine-4,1′-indane]-4′-carboxamide] | 0.57 µM
CN1C(=O)NC2(CCc3c(C(=O)Nc4ccc(F)c(Cl)c4)ccc(F)c32)C1=O (single isomer, unassigned) [Compound 261, N-(3-chloro-4-fluoro-phenyl)-7′-fluoro-1-methyl-2,5-dioxo-spiro [imidazolidine-4,1′-indane]-4′-carboxamide] | 2.7 µM
CN1C(=O)NC2(CCc3c(C(=O)Nc4ccc(F)c(Cl)c4)ccc(F)c32)C1=O (single isomer, unassigned) [Compound 262, N-(3-chloro-4-fluoro-phenyl)-7′-fluoro-1-methyl-2,5-dioxo-spiro [imidazolidine-4,1′-indane]-4′-carboxamide] | 14 µM

same assay, conditions: Hepatitis B virus, HepDE19, 168 h, HepDE19 cells, inhibition of rcDNA formation, 7 day incubation, top concentration 25 μM; read-out: DE-19 bDNA EC50

SMILES | EC50
O=C(Nc1ccc(F)c(Cl)c1)c1cncc2c1CCC2NS(=O)(=O)C1CC1 (racemic) [Compound 268, N-(3-Chloro-4-fluorophenyl)-7-(cyclopropanesulfonamido)-6,7-dihydro-5H-cyclopenta[c]pyridine-4-carboxamide] | 8.2 µM
O=C(NC1CSc2c(C(=O)Nc3ccc(F)c(F)c3)cccc21)OCc1ccccn1 (single isomer, unassigned) [Compound 33, O-Pyridin-2-ylmethyl, N-(7-((3,4-difluorophenyl)carbamoyl)-2,3-dihydrobenzo[b]thiophen-3-yl) carbamate hydrochloride] | 1.1 µM
Cc1cc(NC(=O)c2ccc(F)c3c2OCC3NC(=O)OCc2ccccn2)ccc1F (single isomer, unassigned) [Compound 206, O-Pyridin-2-ylmethyl, N-(4-fluoro-7-((4-fluoro-3-methylphenyl)carbamoyl)-2,3-dihydrobenzofuran-3-yl)carbamate] | 0.41 µM
CNC(=O)NC1c2c(F)ccc(C(=O)Nc3ccc(F)c(Cl)c3)c2CC1(F)F (single isomer, unassigned) [Compound 211, N-(3-chloro-4-fluorophenyl)-2,2,7-trifluoro-1-(3-methylureido)-2,3-dihydro-1H-indene-4-carboxamide] | 6.9 µM
CNC(=O)NC1(C)CCc2c(C(=O)Nc3ccc(F)c(Cl)c3)ccc(F)c21 (single isomer, unassigned) [Compound 215, N-(3-Chloro-4-fluorophenyl)-7-fluoro-1-methyl-1-(3-methylureido)-2,3-dihydro-1H-indene-4-carboxamide] | 3.8 µM

same assay, conditions: Hepatitis B virus, HepDE19, 168 h, read-out: DE-19 bDNA EC50 (μM), HepDE19 cells, inhibition of rcDNA formation, 7 day incubation, top concentration 25 μM

SMILES | EC50
COC(=O)NC1CSc2c(C(=O)Nc3ccc(F)c(Cl)c3)cccc21 (single isomer, unassigned) [Compound 38, O-Methyl, N-(7-((3-chloro-4-fluorophenyl)carbamoyl)-2,3-dihydrobenzo[b]thiophen-3-yl) carbamate] | > 25 µM

same assay, conditions: read-out: DE-19 bDNA EC50; HepDE19 cells, inhibition of rcDNA formation, 7 day incubation, top concentration 25 μM

SMILES | EC50
CNC(=O)NC1COc2c(C(=O)Nc3ccc(F)c(F)c3)cccc21 (single isomer, unassigned) [Compound 7, N-(3,4-difluorophenyl)-3-(3-methylureido)-2,3-dihydrobenzofuran-7-carboxamide] | 1.9 µM
CNC(=O)NC1COc2c(C(=O)Nc3ccc(F)c(F)c3)cccc21 (single isomer, unassigned) [Compound 8, N-(3,4-difluorophenyl)-3-(3-methylureido)-2,3-dihydrobenzofuran-7-carboxamide] | 23 µM
COC(=O)NC1CSc2c(C(=O)Nc3ccc(F)c(F)c3)cccc21 (single isomer, unassigned) [Compound 30, O-Methyl, N-(7-((3,4-difluorophenyl)carbamoyl)-2,3-dihydrobenzo[b]thiophen-3-yl)carbamate] | 1.8 µM
COC(=O)NC1CSc2c(C(=O)Nc3ccc(F)c(F)c3)cccc21 (single isomer, unassigned) [Compound 31, O-Methyl, N-(7-((3,4-difluorophenyl)carbamoyl)-2,3-dihydrobenzo[b]thiophen-3-yl)carbamate] | > 25 µM
CNC(=O)NC1c2c(F)ccc(C(=O)Nc3ccc(F)c(Cl)c3)c2CC1(C)C (single isomer, unassigned) [Compound 134, N-(3-Chloro-4-fluorophenyl)-7-fluoro-2,2-dimethyl-1-(3-methylureido)-2,3-dihydro-1H-indene-4-carboxamide] | 0.36 µM
CNC(=O)NC1COc2c(C(=O)Nc3ccc(F)c(Cl)c3)ccc(F)c21 (single isomer, unassigned) [Compound 189, N-(3-Chloro-4-fluorophenyl)-4-fluoro-3-(3-methylureido)-2,3-dihydrobenzofuran-7-carboxamide] | 0.45 µM
CNC(=O)NC1COc2c(C(=O)Nc3ccc(F)c(Cl)c3)ccc(F)c21 (single isomer, unassigned) [Compound 190, N-(3-Chloro-4-fluorophenyl)-4-fluoro-3-(3-methylureido)-2,3-dihydrobenzofuran-7-carboxamide] | > 25 µM
O=C(NC1COc2c(C(=O)Nc3ccc(F)c(Cl)c3)ccc(F)c21)OCc1ccccn1 (single isomer, unassigned) [Compound 191, O-Pyridin-2-ylmethyl, N-(7-((3-chloro-4-fluorophenyl)carbamoyl)-4-fluoro-2,3-dihydrobenzofuran-3-yl)carbamate] | 18 µM
O=C(NC1COc2c(C(=O)Nc3ccc(F)c(Cl)c3)ccc(F)c21)OCc1ccccn1 (single isomer, unassigned) [Compound 192, O-Pyridin-2-ylmethyl, N-(7-((3-chloro-4-fluorophenyl)carbamoyl)-4-fluoro-2,3-dihydrobenzofuran-3-yl)carbamate] | 0.31 µM
CNC(=O)NC1COc2c(C(=O)Nc3ccc(F)c(C)c3)ccc(F)c21 (single isomer, unassigned) [Compound 203, 4-Fluoro-N-(4-fluoro-3-methylphenyl)-3-(3-methylureido)-2,3-dihydrobenzofuran-7-carboxamide] | > 25 µM
CNC(=O)NC1COc2c(C(=O)Nc3ccc(F)c(C)c3)ccc(F)c21 (single isomer, unassigned) [Compound 204, 4-Fluoro-N-(4-fluoro-3-methylphenyl)-3-(3-methylureido)-2,3-dihydrobenzofuran-7-carboxamide] | 0.2 µM
CNC(=O)NC1c2c(F)ccc(C(=O)Nc3ccc(F)c(Cl)c3)c2CC1(C)C (single isomer, unassigned) [Compound 249, N-(3-Chloro-4-fluorophenyl)-7-fluoro-2,2-dimethyl-1-(3-methylureido)-2,3-dihydro-1H-indene-4-carboxamide] | 13 µM

same assay, conditions: read-out: DE-19 bDNA EC50; HepDE19 cells, inhibition of rcDNA formation, 7 day incubation, top concentration 25 μM; hydrochloride

SMILES | EC50
O=C(NC1CSc2c(C(=O)Nc3ccc(F)c(F)c3)cccc21)OCc1ccccn1 (single isomer, unassigned) [Compound 34, O-Pyridin-2-ylmethyl, N-(7-((3,4-difluorophenyl)carbamoyl)-2,3-dihydrobenzo[b]thiophen-3-yl)carbamate hydrochloride] | > 25 µM

Source: US11098010B2 (priority 2017, dated 2021)
